Legend:
Format in all cases: biochemical
CCND1 = assay: In vitro transcription-translation (IVTT) assay, CCND1 reporter; conditions: IVTT, HeLa S3 lysate, 2 hrs at 30° C.
How it was run: (§1)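 Reporter: mCherry, P2A, then 3×FLAG-target peptide-sfGFP fusion, IRES-initiated; HeLa S3 lysate IVTT; cpd dilutions 30 μM−0.1 μM half-log in 100% DMSO (dilution-plate conc); DNA added last; 2 h, 30° C; PBS quench.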

MCL-1 = assay: In vitro transcription-translation (IVTT) assay, MCL-1 reporter; conditions: IVTT, HeLa S3 lysate, 2 hrs at 30° C.; read-out: MCL1 IC50
How it was run: as §1

CCNTB1 = assay: In vitro transcription-translation (IVTT) assay, CCNTB1 reporter; conditions: HeLa S3 lysate, 2 hrs at 30° C.
How it was run: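 IC50 fitted from the sfGFP/mCherry fluorescence ratio, normalized to no-drug control after no-DNA background subtraction. Reactions ran 2 h at 30° C in HeLa S3 cell lysate with reporter plasmid DNA and half-log compound titrations (30 μM−0.1 μM, in DMSO).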

MYC = assay: In vitro transcription-translation (IVTT) assay, MYC reporter; conditions: IVTT assay, HeLa S3 lysate, MYC reporter, normalized sfGFP/mCherry ratio; half-log dilutions 30 μM-0.1 μM, 2 hrs at 30° C.
How it was run: as §1

Structure (SMILES) | IC50 (CCND1) | IC50 (MCL-1) | IC50 (CCNTB1) | IC50 (MYC)
COc1ccc(C[C@H]2NC[C@H](O)[C@H]2OC(=O)NCCC[C@H]2CCNC2)cc1 [V188340, (2R,3S,4S)-4-hydroxy-2-[(4-methoxyphenyl)methyl]pyrrolidin-3-yl N-{3-[(3S)-pyrrolidin-3-yl]propyl}carbamate] | 10 to 20 µM | < 10 µM | < 10 µM | < 10 µM
O=C(NCC[C@@H]1CCCN1)O[C@@H]1[C@@H](O)CN[C@@H]1Cc1ccc(-c2ccccc2)cc1 [V190505, (2R,3S,4S)-2-{[1,1′-biphenyl]-4-ylmethyl}-4-hydroxypyrrolidin-3-yl N-{2-[(2S)-pyrrolidin-2-yl]ethyl}carbamate] | < 10 µM | < 10 µM | < 10 µM | < 10 µM
COc1ccc(C[C@H]2NC[C@H](O)[C@H]2OC(=O)NCc2cnsc2)cc1 [V188384, (2R,3S,4S)-4-hydroxy-2-[(4-methoxyphenyl)methyl]pyrrolidin-3-yl N-(1,2-thiazol-4-ylmethyl)carbamate] | < 10 µM | < 10 µM | < 10 µM | < 10 µM
Cn1cc(-c2ccc(C[C@H]3NC[C@H](O)[C@H]3OC(=O)NCc3ccccc3)cc2)nn1 [V188392, (2R,3S,4S)-4-hydroxy-2-{[4-(1-methyl-1,2,3-triazol-4-yl)phenyl]methyl}pyrrolidin-3-yl N-benzylcarbamate] | < 10 µM | < 10 µM | < 10 µM | < 10 µM
O=C(NCc1cccc(F)c1)O[C@@H]1[C@@H](O)CN[C@@H]1Cc1ccc(C2CC2)cc1 [V190518, (2R,3S,4S)-2-[(4-cyclopropylphenyl)methyl]-4-hydroxypyrrolidin-3-yl N-[(3-fluorophenyl)methyl]carbamate] | 20 to 30 µM | 10 to 20 µM | < 10 µM | 10 to 20 µM
COc1ccc(C[C@H]2NC[C@H](O)[C@H]2OC(=O)NCC23CC(C2)C3)cc1 [V188324, (2R,3S,4S)-4-hydroxy-2-[(4-methoxyphenyl)methyl]pyrrolidin-3-yl N-{bicyclo[1.1.1]pentan-1-ylmethyl}carbamate] | 10 to 20 µM | 10 to 20 µM | < 10 µM | 10 to 20 µM
COc1ccc(C[C@H]2NC[C@H](O)[C@H]2OC(=O)NCc2ccc(F)cc2)cc1 [V188378, (2R,3S,4S)-4-hydroxy-2-[(4-methoxyphenyl)methyl]pyrrolidin-3-yl N-[(4-fluorophenyl)methyl]carbamate] | < 10 µM | < 10 µM | < 10 µM | < 10 µM
O=C(NCc1ccccc1)O[C@@H]1[C@@H](O)CN[C@@H]1Cc1ccc(C2CC2)cc1 [V188329, (2R,3S,4S)-2-[(4-cyclopropylphenyl)methyl]-4-hydroxypyrrolidin-3-yl N-benzylcarbamate] | < 10 µM | < 10 µM | < 10 µM | < 10 µM

Further lines, with some results ahead:

IC50 (CCND1) | IC50 (MCL-1) | IC50 (CCNTB1) | Structure (SMILES) | IC50 (MYC)
10 to 20 µM | < 10 µM | < 10 µM | COc1ccc(C[C@H]2NC[C@H](O)[C@H]2OC(=O)NCc2cccc3cn[nH]c23)cc1 [V190459, (2R,3S,4S)-4-hydroxy-2-[(4-methoxyphenyl)methyl]pyrrolidin-3-yl N-(1H-indazol-7-ylmethyl)carbamate] | < 10 µM
< 10 µM | < 10 µM | < 10 µM | COc1ccc(C[C@H]2NC[C@H](O)[C@H]2OC(=O)NCc2cccc(F)c2)cc1 [V188379, (2R,3S,4S)-4-hydroxy-2-[(4-methoxyphenyl)methyl]pyrrolidin-3-yl N-[(3-fluorophenyl)methyl]carbamate] | < 10 µM
< 10 µM | < 10 µM | < 10 µM | O=C(NCC[C@@H]1CCCN1)O[C@@H]1[C@@H](O)CN[C@@H]1Cc1ccc(F)cc1 [V191886, (2R,3S,4S)-2-[(4-fluorophenyl)methyl]-4-hydroxypyrrolidin-3-yl N-{2-[(2S)-pyrrolidin-2-yl]ethyl}carbamate] | < 10 µM
> 30 µM | 20 to 30 µM | 10 to 20 µM | COc1ccc(C[C@H]2NC[C@H](O)[C@H]2OC(=O)NCc2c(F)cccc2F)cc1 [V190521, (2R,3S,4S)-4-hydroxy-2-[(4-methoxyphenyl)methyl]pyrrolidin-3-yl N-[(2,6-difluorophenyl)methyl]carbamate] | 20 to 30 µM
< 10 µM | < 10 µM | < 10 µM | COc1ccc(C[C@H]2NC[C@H](O)[C@H]2OC(=O)NCc2ccc(C3CCCN3)cc2)cc1 (stereo partly drawn) [V188355, (2R,3S,4S)-4-hydroxy-2-[(4-methoxyphenyl)methyl]pyrrolidin-3-yl N-{[4-(pyrrolidin-2-yl)phenyl]methyl}carbamate] | < 10 µM
< 10 µM | < 10 µM | < 10 µM | COc1ccc(C[C@H]2NC[C@H](O)[C@H]2OC(=O)NCc2cnoc2)cc1 [V188383, (2R,3S,4S)-4-hydroxy-2-[(4-methoxyphenyl)methyl]pyrrolidin-3-yl N-(1,2-oxazol-4-ylmethyl)carbamate] | < 10 µM
< 10 µM | < 10 µM | < 10 µM | O=C(NCc1ccccc1)O[C@@H]1[C@@H](O)CN[C@@H]1Cc1ccc(-c2c[nH]nn2)cc1 [V188331, (2R,3S,4S)-4-hydroxy-2-{[4-(1H−1,2,3-triazol-4-yl)phenyl]methyl}pyrrolidin-3-yl N-benzylcarbamate] | < 10 µM
> 30 µM | > 30 µM | 20 to 30 µM | O=C(NCc1cccc(F)c1)O[C@@H]1[C@@H](O)CN[C@@H]1Cc1ccc(OC(F)(F)F)cc1 [V190509, (2R,3S,4S)-4-hydroxy-2-(4-(trifluoromethoxy)benzyl)pyrrolidin-3-yl (3-fluorobenzyl)carbamate] | > 30 µM
< 10 µM | < 10 µM | < 10 µM | COc1ccc(C[C@H]2NC[C@H](O)[C@H]2OC(=O)NCc2cccc(C(F)F)c2)cc1 [V191954, (2R,3S,4S)-4-hydroxy-2-[(4-methoxyphenyl)methyl]pyrrolidin-3-yl N-{[3-(difluoromethyl)phenyl]methyl}carbamate] | < 10 µM

From patent US20250129021A1, “SMALL MOLECULE PROTEIN SYNTHESIS MODULATORS” (Interdict Bio, Inc., priority 2023, published 2025)
